# Measurements from ChEMBL document CHEMBL5625227, “Discovery and optimization of 2,3-diaryl-1,3-thiazolidin-4-one-based derivatives as potent and selective cytotoxic agents with anti-inflammatory activity” (Eur J Med Chem, 2023).
# Activity calls are given as the source filed them. No cut-off for these calls is given here.
# Assays:
# [1] = tested on: MCF7; experiment: Cytotoxicity against human MCF7 cells assessed as inhibition in cell growth incubated for 72 hrs by MTT assay; type: functional, cell-based; conditions: MCF7, 72 h
# [2] = tested on: HT-29; experiment: Cytotoxicity against human HT-29 cells assessed as inhibition in cell growth incubated for 72 hrs by MTT assay; type: functional, cell-based; conditions: HT-29, 72 h
# [3] = tested on: A2780; experiment: Cytotoxicity against human A2780 cells assessed as inhibition in cell growth incubated for 72 hrs by MTT assay; type: functional, cell-based; conditions: A2780, 72 h
# [4] = Cytotoxicity against human MRC5 cells assessed as inhibition in cell growth incubated for 72 hrs by MTT assay; type: toxicity, cell-based
# [5] = Selectivity index, ratio of IC50 for cytotoxicity against human MRC5 cells to IC50 for cytotoxicity against human MCF7 cells; conditions: MRC5 cells versus MCF7 cells
# [6] = Selectivity index, ratio of IC50 for cytotoxicity against human MRC5 cells to IC50 for cytotoxicity against human HT-29 cells; conditions: MRC5 cells versus HT-29 cells
# [7] = Selectivity index, ratio of IC50 for cytotoxicity against human MRC5 cells to IC50 for cytotoxicity against human A2780 cells; conditions: MRC5 cells versus A2780 cells
# [8] = tested on: HT-29; experiment: Anticlonogenic activity against human HT-29 cells assessed as reduction in number of colonies at 0.025 uM incubated for 24 hrs by clonogenic survival assay; type: functional, cell-based
# [9] = tested on: Ehrlich; experiment: Antitumor activity against mouse Ehrlich solid carcinoma cells bearing adult male swiss albino mouse assessed as decrease in tumor volume at 50 mg/kg, po administered every other day and observed at 9 days; type: functional, organism-based; conditions: time 9.0 day
# [10] = tested on: Ehrlich; experiment: Antitumor activity against mouse Ehrlich solid carcinoma cells bearing adult male swiss albino mouse assessed as decrease in tumor volume at 50 mg/kg, po administered every other day and observed at 13 days; type: functional, organism-based; conditions: time 13.0 day
# [11] = tested on: Ehrlich; experiment: Antitumor activity against mouse Ehrlich solid carcinoma cells bearing adult male swiss albino mouse assessed as decrease in tumor volume at 50 mg/kg, po administered every other day and observed at 5 days; type: functional, organism-based; conditions: time 5.0 day
# [12] = tested on: Ehrlich; experiment: Antitumor activity against mouse Ehrlich solid carcinoma cells bearing adult male swiss albino mouse assessed as tumor growth inhibition at 50 mg/kg, po administered every other day and observed at 13 days relative to control; type: functional; conditions: 312 h, time 13 day, read-out: TGI
# [13] = tested on: Ehrlich; experiment: Antitumor activity against mouse Ehrlich solid carcinoma cells bearing adult male swiss albino mouse assessed as decrease in tumor weight at 50 mg/kg, po administered every other day and observed at 14 days; type: functional, organism-based; conditions: time 14.0 day
# [14] = tested on: HT-29; experiment: Anti-migration activity in human HT-29 cells assessed as suppression in cell migration at 0.025 uM incubated 48 hrs by wound-healing assay; type: functional, cell-based
# [15] = tested on: HT-29; experiment: Induction of apoptosis in human HT-29 cells assessed as accumulation of cells at viable stage at 0.025 uM incubated for 24 hrs by Annexin V-FITC/propidium iodide staining based flow cytometry analysis (reference value: 91.7%); type: functional
# [16] = tested on: HT-29; experiment: Induction of apoptosis in human HT-29 cells assessed as accumulation of cells at early apoptotic stage at 0.025 uM incubated for 24 hrs by Annexin V-FITC/propidium iodide staining based flow cytometry analysis (reference value: 0.1%); type: functional
# [17] = tested on: HT-29; experiment: Induction of apoptosis in human HT-29 cells assessed as accumulation of cells at late apoptotic stage at 0.025 uM incubated for 24 hrs by Annexin V-FITC/propidium iodide staining based flow cytometry analysis (reference value: 0.2%); type: functional
# [18] = tested on: HT-29; experiment: Induction of apoptosis in human HT-29 cells assessed as accumulation of cells at necrotic stage at 0.025 uM incubated for 24 hrs by Annexin V-FITC/propidium iodide staining based flow cytometry analysis (reference value: 8.1%); type: functional
# [19] = species on record: Sus scrofa; experiment: Inhibition of porcine brain tubulin polymerization at 1 uM by fluorescence-based tubulin polymerization assay
# [20] = target: T1, Prostaglandin G/H synthase 1 (Ovis aries, UniProt P05979); experiment: Inhibition of ovine COX-1
# T1 sequence (P05979 whole entry): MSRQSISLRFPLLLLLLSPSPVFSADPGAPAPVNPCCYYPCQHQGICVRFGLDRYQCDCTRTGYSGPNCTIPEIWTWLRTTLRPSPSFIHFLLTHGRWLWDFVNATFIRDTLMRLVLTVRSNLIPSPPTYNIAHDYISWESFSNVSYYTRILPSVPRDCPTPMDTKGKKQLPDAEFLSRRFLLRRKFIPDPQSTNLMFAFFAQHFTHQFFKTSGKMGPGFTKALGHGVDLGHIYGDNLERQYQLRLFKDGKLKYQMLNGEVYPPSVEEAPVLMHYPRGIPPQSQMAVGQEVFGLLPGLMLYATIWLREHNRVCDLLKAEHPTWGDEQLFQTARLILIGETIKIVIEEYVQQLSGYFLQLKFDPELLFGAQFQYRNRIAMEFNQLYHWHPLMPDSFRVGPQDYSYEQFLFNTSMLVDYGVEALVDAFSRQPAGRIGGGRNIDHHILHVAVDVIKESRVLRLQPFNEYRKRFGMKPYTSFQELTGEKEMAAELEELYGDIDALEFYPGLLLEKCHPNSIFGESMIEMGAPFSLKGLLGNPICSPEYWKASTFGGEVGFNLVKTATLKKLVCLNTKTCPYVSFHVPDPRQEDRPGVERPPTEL
# [21] = tested on: Rattus norvegicus; experiment: Antiinflammatory activity against carrageenan-induced paw edema Sprague-Dawley rat model assessed as inhibition of paw edema by measuring edema thickness at 50 mg/kg, po measured after 1 hr (reference value: 0.71 +/- 0.03 mm); type: functional
# [22] = tested on: Rattus norvegicus; experiment: Antiinflammatory activity against carrageenan-induced paw edema Sprague-Dawley rat model assessed as inhibition of paw edema by measuring edema thickness at 50 mg/kg, po measured after 3 hrs (reference value: 1.41 +/- 0.13 mm); type: functional
# [23] = tested on: Rattus norvegicus; experiment: Antiinflammatory activity against carrageenan-induced paw edema Sprague-Dawley rat model assessed as inhibition of paw edema by measuring edema thickness at 50 mg/kg, po measured after 5 hrs (reference value: 1.39 +/- 0.11 mm); type: functional
# [24] = tested on: Rattus norvegicus; experiment: Antiinflammatory activity against carrageenan-induced paw edema Sprague-Dawley rat model assessed as inhibition of inflammation at 50 mg/kg, po after 1 hr relative to control; type: functional; set-up: scale not given: the % may be the effect or the level left
# [25] = tested on: Rattus norvegicus; experiment: Antiinflammatory activity against carrageenan-induced paw edema Sprague-Dawley rat model assessed as inhibition of inflammation at 50 mg/kg, po after 3 hrs relative to control; type: functional; set-up: scale not given: the % may be the effect or the level left
# [26] = tested on: Rattus norvegicus; experiment: Antiinflammatory activity against carrageenan-induced paw edema Sprague-Dawley rat model assessed as inhibition of inflammation at 50 mg/kg, po after 5 hrs relative to control; type: functional; set-up: scale not given: the % may be the effect or the level left
# [27] = Acute ulcerogenic activity in Sprague-Dawley male rat assessed as incidence of ulcer/10 animal at 50 mg/kg/day, po administered for 3 days; type: toxicity, organism-based; conditions: in vivo, 72 h, time 3 day
# [28] = Acute ulcerogenic activity in Sprague-Dawley male rat assessed as average number of ulcers at 50 mg/kg/day, po administered for 3 days; type: toxicity, organism-based; conditions: in vivo, 72 h, time 3 day
# [29] = Acute ulcerogenic activity in Sprague-Dawley male rat assessed as average severity of ulcers at 50 mg/kg/day, po administered for 3 days; type: toxicity, organism-based; conditions: in vivo, 72 h, time 3 day
# [30] = Acute ulcerogenic activity in Sprague-Dawley male rat assessed as ulcer index at 50 mg/kg/day, po administered for 3 days; type: toxicity, organism-based; conditions: in vivo, 72 h, time 3 day
# [31] = Acute ulcerogenic activity in Sprague-Dawley male rat assessed as change in normal gastric mucosa with mild congestion of the blood vessels in the submucosa at 50 mg/kg/day, po administered for 3 days by hematoxylin and eosin staining method; type: toxicity, organism-based, Stomach; conditions: in vivo, 72 h, time 3 day
compound,measurement,setting,value
Cc1ccc(C2SCC(=O)N2c2ccc(OCC(=O)Nc3ccc(Cl)cc3)cc2)cc1 (stereo unspecified),IC50,[1],110 nM
same,IC50,[2],20 nM
same,IC50,[3],180 nM
same,IC50 at 72 h,[4],470 nM
same,selectivity ratio at 72 h,[5],4.27
same,selectivity ratio at 72 h,[6],23.5
same,selectivity ratio at 72 h,[7],2.61
same,Activity,[8],Active
same,Activity,[9],Active
same,Activity,[10],Active
same,Activity,[11],Active
same,inhibition in vivo at 50 mg/kg,[12],51.6%
same,Activity,[13],Active
same,Activity,[14],Active
same,Activity,[15],41.1%
same,Activity,[16],19.2%
same,Activity,[17],15.6%
same,Activity,[18],24.1%
same,inhibition,[19],Active
same,IC50,[20],13400 nM
same,Activity,[21],0.52 mm
same,Activity,[22],0.49 mm
same,Activity,[23],0.73 mm
same,Activity,[24],15.3%
same,Activity,[25],32.7%
same,Activity,[26],47.48%
same,Activity,[27],10%
same,Activity,[28],3.33
same,Activity,[29],2
same,UI,[30],15.33
same,Activity,[31],Non-Toxic
